In US10208033B2, “β-carboline, dihydro-β-carboline and tetrahydro-β-carboline alkaloid derivatives and preparation methods same and use in aspects of preventing and treating plant viruses, fungicides and insecticides” (NANKAI UNIVERSITY, priority 2013, dated 2019):

Assays:
[1] = test system: Cercospora arachidicola; assay: Fungicidal (bactericidal) activity in vitro, PDA colony diameter; assay type: cell-based; conditions: 50 mg/kg
[2] = test system: potato late blight; assay: microbe, parasite or virus in culture; assay type: cell-based
[3] = test system: cucumber fusarium wilt; assay: Fungicidal (bactericidal) activity in vitro, PDA colony diameter; assay type: cell-based; conditions: 50 mg/kg
[4] = test system: Bipolaria maydis; assay: organism not typed; assay type: cell-based
[5] = test system: Colletotrichum orbiculare; assay: Fungicidal (bactericidal) activity in vitro, PDA colony diameter; assay type: cell-based; conditions: 50 mg/kg
[6] = test system: Phytophthora capsici; assay: as above; assay type: cell-based; conditions: 50 mg/kg
[7] = test system: Rhizoctonia solani; assay: as above; assay type: cell-based; conditions: 50 mg/kg
[8] = test system: Rhizoctonia cereali; assay: as above; assay type: cell-based; conditions: 50 mg/kg
[9] = test system: Sclerotinia scleotiorum; assay: as above; assay type: cell-based; conditions: 50 mg/kg
[10] = test system: Botrytis cinerea; assay: as above; assay type: cell-based; conditions: 50 mg/kg
[11] = test system: Fusarium fujikuroi; assay: as above; assay type: cell-based; conditions: 50 mg/kg
[12] = test system: tobacco mosaic virus (TMV); assay: Anti-TMV in vitro effect (half-leaf soaking); assay type: cell-based, tobacco mosaic virus (host Nicotiana tabacum L.cv.Xanthi NN); conditions: for inhibition at 100 µg/mL / inhibition at 500 µg/mL: Tobacco mosaic virus, read-out: Relative inhibition rate (%) In vitro activity
[13] = test system: tobacco mosaic virus (TMV); assay: Anti-TMV in vivo therapeutic effect; set-up: species or system tobacco mosaic virus (host Nicotiana tabacum L.cv.Xanthi NN); conditions: for inhibition at 100 µg/mL / inhibition at 500 µg/mL: Tobacco mosaic virus, read-out: Relative inhibition rate (%) In vivo therapy
[14] = test system: armyworms; assay type: in vivo; conditions: concentration 600 mg/kg
[15] = test system: tobacco mosaic virus (TMV); assay: Anti-TMV in vivo protective effect; set-up: species or system tobacco mosaic virus (host Nicotiana tabacum L.cv.Xanthi NN); conditions: for inhibition at 100 µg/mL / inhibition at 500 µg/mL: Tobacco mosaic virus, read-out: Relative inhibition rate (%) In vivo protection
[16] = test system: Macrophoma kawatsukai; assay: Fungicidal (bactericidal) activity in vitro, PDA colony diameter; assay type: cell-based; conditions: 50 mg/kg
[17] = test system: corn borers; conditions: concentration 600 mg/kg
[18] = test system: cotton bollworms; assay: whole plant or invertebrate; conditions: for mortality at 600 mg/kg: Helicoverpa armigera, in Gossypium hirsutum, read-out: Cotton bollworm Mortality (%)
Description: Experimental method of cotton bollworms: feed and drug mixing method: measure 3 mL of prepared solution and add it to about 27 g of newly prepared feed, thereby obtaining needed concentration through dilution by 10 times.

[19] = test system: Alternaria solani; assay: Fungicidal (bactericidal) activity in vitro, PDA colony diameter; assay type: cell-based; conditions: 50 mg/kg
[20] = test system: tobacco mosaic virus (TMV); assay: Anti-TMV in vivo inactivation; set-up: species or system tobacco mosaic virus (host Nicotiana tabacum L.cv.Xanthi NN); conditions: for inhibition at 100 µg/mL / inhibition at 500 µg/mL: Tobacco mosaic virus, read-out: Relative inhibition rate (%) In vivo inactivation
[21] = test system: mosquito larvae; assay: whole plant or invertebrate; conditions: 24 h; for mortality at 10 mg/kg: Culex pipiens, read-out: Mosquito larvae Mortality (%)
Outline: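 Compound dissolved in acetone (or other solvent) to a 1000 ppm stock and diluted in water to 5 ppm. Ten Culex pipiens pallens larvae at the start of the fourth instar, laboratory-reared, added per beaker; solvent-only aqueous control.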

[22] = test system: armyworms, cotton bollworms and corn borers; assay: Insecticidal activity, overall statements on Table 3; assay type: in vivo; conditions: Table 3, 600 mg/kg
[23] = test system: Fusarium graminearumt; assay: microbe, parasite or virus in culture; assay type: cell-based
[24] = test system: corn borers; assay: whole plant or invertebrate; conditions: read-out: Corn borer Mortality (%)
[25] = test system: tobacco mosaic virus (TMV); assay: Anti-TMV activity, overall statements on Table 1; assay type: in vivo, tobacco mosaic virus (host Nicotiana tabacum L.cv.Xanthi NN); conditions: 100 μg/mL versus ningnanmycin at 100 μg/mL

## C[C@@H]1N[C@H](C(=O)NCC2CCCO2)Cc2c1[nH]c1ccccc21 (stereo partly drawn) [Ib-20, (1S, 3S)—N-((tetrahydrofuran-2)-methyl)-1-methyl-2,3,4,9-tetrahydro-pyridino [3,4-b] indol-3-formamide]
[1]
  Bactericidal activity (%) Cercospora arachidicola: 23.5%
[2]
  Bactericidal activity (%) potato late blight: 20.0%
[3]
  Bactericidal activity (%) Cucumber fusarium wilt: 15.4%
[4]; 50 mg/kg
  Bactericidal activity (%) Bipolaria maydis: 16.0%
[5]
  Bactericidal activity (%) Colletotrichum orbiculare: 18.5%
[6]
  Bactericidal activity (%) Phytophthora capsici: 18.4%
[7]
  Bactericidal activity (%) Rhizoctonia solani: 13.2%
[8]
  Bactericidal activity (%) Rhizoctonia cereali: 47.1%
[9]
  Bactericidal activity (%) Sclerotinia scleotiorum: 0.0%
[10]
  Bactericidal activity (%) Botrytis cinerea: 36.4%
[11]
  Bactericidal activity (%) Fusarium fujikuroi: 21.4%
[12]; treatment dose 100 μg/mL
  Relative inhibition rate (%) In vitro activity: 0%
[12]; treatment dose 500 μg/mL
  Relative inhibition rate (%) In vitro activity: 37.5%
[13]; treatment dose 100 μg/mL
  Relative inhibition rate (%) In vivo therapy: 0%
[13]; treatment dose 500 μg/mL
  Relative inhibition rate (%) In vivo therapy: 34.2%
[14]
  Armyworm Mortality (%): 65%
[15]; treatment dose 100 μg/mL
  Relative inhibition rate (%) In vivo protection: 0%
[15]; treatment dose 500 μg/mL
  Relative inhibition rate (%) In vivo protection: 29.6%
[16]
  Bactericidal activity (%) Macrophoma kawatsukai: 27.8%
[17]
  Corn borer Mortality (%): 60%
[18]; concentration 600 mg/kg
  Cotton bollworm Mortality (%): 30%
[19]
  Bactericidal activity (%) Alternaria solani: 20.0%
[20]; treatment dose 100 μg/mL
  Relative inhibition rate (%) In vivo inactivation: 9.8%
[20]; treatment dose 500 μg/mL
  Relative inhibition rate (%) In vivo inactivation: 39.1%
[21]; concentration 5 mg/kg
  Mosquito larvae Mortality (%): 40%
[21]; concentration 10 mg/kg
  Mosquito larvae Mortality (%): 100%
[22]
  activity against armyworms, cotton bollworms and corn borers (in words): broad-spectrum activity
[23]; 50 mg/kg
  Bactericidal activity (%) Fusarium graminearumt: 24.1%

## C[C@@H]1N[C@H](C(=O)NNC(=O)c2cccc3nnsc23)Cc2c1[nH]c1ccccc21 [Id-1, N′-((1S, 3S)-1-methyl-2,3,4,9-tetrahydropyridino [3,4-b]indol-3-tricarboxylate)benzo [d] [1,2, 3] thiadiazole-7-formylhydrazine]
[1]; Mycosphaerella arachidis, 96 h
  inhibition of growth at 50 mg/kg: 18.2%
[2]; Phytophthora infestans, 96 h, read-out: Bactericidal activity (%) potato late blight
  inhibition of growth at 50 mg/kg: 17.4%
[3]; Fusarium, 96 h
  inhibition of growth at 50 mg/kg: 13.6%
[4]; read-out: Bactericidal activity (%) Bipolaria maydis
  inhibition at 50 mg/kg: 36%
[5]; Colletotrichum orbiculare, 96 h
  inhibition of growth at 50 mg/kg: 32%
[6]; Phytophthora capsici, 96 h
  inhibition of growth at 50 mg/kg: 27.3%
[24]
  mortality at 600 mg/kg: 35%
[7]; Rhizoctonia solani, 96 h
  inhibition of growth at 50 mg/kg: 1.4%
[25]
  anti-TMV activity compared with ningnanmycin: equivalent to the activity of commercial variety ningnanmycin
[8]; Rhizoctonia, 96 h
  inhibition of growth at 50 mg/kg: 43.2%
[9]; Sclerotinia, 96 h
  inhibition of growth at 50 mg/kg: 26.9%
[10]; Botrytis cinerea, 96 h
  inhibition of growth at 50 mg/kg: 44.4%
[11]; Fusarium fujikuroi, 96 h
  inhibition of growth at 50 mg/kg: 47.1%
[12]; treatment dose 100 μg/mL
  inhibition at 100 µg/mL: 22.6%
[12]; treatment dose 500 μg/mL
  inhibition at 500 µg/mL: 52.1%
[13]; treatment dose 100 μg/mL
  inhibition at 100 µg/mL: 26.8%
[13]; treatment dose 500 μg/mL
  inhibition at 500 µg/mL: 54.5%
[14]
  Armyworm Mortality (%): 35%
[15]; treatment dose 100 μg/mL
  inhibition at 100 µg/mL: 29.9%
[15]; treatment dose 500 μg/mL
  inhibition at 500 µg/mL: 58.3%
[16]
  inhibition at 50 mg/kg: 51.5%
[18]
  mortality at 600 mg/kg: 15%
[19]; Alternaria solani, 96 h
  inhibition of growth at 50 mg/kg: 19%
[20]; treatment dose 100 μg/mL
  inhibition at 100 µg/mL: 16.2%
[20]; treatment dose 500 μg/mL
  inhibition at 500 µg/mL: 44.1%
[21]
  mortality at 10 mg/kg: 75%
[23]; Fusarium, 96 h, read-out: Bactericidal activity (%) Fusarium graminearumt
  inhibition of growth at 50 mg/kg: 61.5%

## CC1NCCc2c1[nH]c1ccccc21 (centres unmarked) [Tetrahydroharmane]
[24]
  mortality at 600 mg/kg: 10%
[25]
  anti-TMV activity compared with ningnanmycin: equivalent to the activity of commercial variety ningnanmycin
[12]; treatment dose 100 μg/mL
  inhibition at 100 µg/mL: 28.4%
[12]; treatment dose 500 μg/mL
  inhibition at 500 µg/mL: 63.7%
[13]; treatment dose 100 μg/mL
  inhibition at 100 µg/mL: 20.4%
[13]; treatment dose 500 μg/mL
  inhibition at 500 µg/mL: 57.2%
[14]
  Armyworm Mortality (%): 15%
[15]; treatment dose 100 μg/mL
  inhibition at 100 µg/mL: 24.6%
[15]; treatment dose 500 μg/mL
  inhibition at 500 µg/mL: 59.5%
[18]
  mortality at 600 mg/kg: 15%
[20]; treatment dose 100 μg/mL
  inhibition at 100 µg/mL: 23.5%
[20]; treatment dose 500 μg/mL
  inhibition at 500 µg/mL: 64.2%
[21]
  mortality at 10 mg/kg: 30%
